{"source": "patent US20130059818A1", "about": "“CARBOSILANE DENDRIMERS AND THE USE THEREOF AS ANTIVIRAL AGENTS” (UNIVERSIDAD DE ALCALA DE HENARES (UAH), priority 2010, published 2013)", "key": {"[1]": {"tested_on": "HEC-1A (human endometrial epithelial cells)", "test": "MTT assay in HEC-1A", "format": "cell-based", "conditions": "up to 10 μM, FIG. 13A", "procedure": "(§1) This method was selected to analyze detrimental intracellular effects on mitochondria and metabolic activity. The colorimetric MTT test, based on the selective ability of viable cells to reduce MTT to purple formazan, relies on intact metabolic activity and is frequently used for cytotoxicity screening. […] The concentration of formazan was then determined spectrophotometrically in a plate reader at a wavelength of 570 nm (test) and 690 nm (reference). The spectrophotometer was calibrated to zero absorbance by using Optimem medium without cells. The percentage cell viability relative to control wells (cells with no dendrimer) was calculated by ([A]test/[A]control)T100. […]"}, "[2]": {"tested_on": "X4 HIV NL4.3 and R5 HIV Bal", "test": "CDi, CDm and macrophages pre-treatment", "format": "cell-based, HIV-1", "conditions": "pretreated 1 h, 50 ng virus", "procedure": "Once the cells were differentiated, they were washed twice with PBS and 2*10^5 CDi, 2*10^5 CDm and 10^5 macrophages were dispensed in 200 μL of complete medium in bottom p96 wells. The dendrimer were added one hour prior to the infection. After adding the viral particles (50 ng), they were incubated in culture conditions and after 3 hours the supernatant was retired and washed 4 times with PBS. The supernatant was collected after 4 days. The viral concentration was quantified by ELISA."}, "[3]": {"tested_on": "HEC-1A (human endometrial epithelial cells)", "test": "LDH assay in HEC-1A", "format": "cell-based", "text": "This technique (CytoTox 96® Non-Radioactive Cytotoxicity Assay) was used to test the damage in the cell membrane surface due to the presence of anionic peripheral groups of dendrimers. The lactate dehydrogenase (LDH) is an enzyme that is released into the cytoplasm due to cell lysis. The LDH assay, therefore, is a measure of membrane integrity, which is based on the oxidation of LDH to pyruvate and reduction of tetrazolium salts to formazan crystals by pyruvate.\n1*10^5 cells/well were dispensed in 96-well plate round bottom in a volume of 100 μL of complete medium and the dendrimer was added in a volume of 100 μL, to obtain a final volume of 200 μL in the well. Controls: 1. 200 μL of complete medium without cells (background control), 2. 100 μL of cells+100 μL of complete medium, 3. 100 μL of cells+100 μL of Triton X-100 0.2% 4. 100 μL of cells+100 μL with the dendrimer to the desired concentration. Incubated in culture conditions during the first 24 h. Plate was centrifuged at 1500 rpm 10 minutes and removed 100 μL of supernatant, being careful not to take the cells. 100 μL of reaction mixture prepared at the time on the 100 μL was added of supernatant and incubated at room temperature for 30 minutes in darkness. Finally, measured at 490 nm and 690 nm reference. The cytotoxicity was obtained from the following formula: Cytotoxicity (%)=(4−2)/(3−2)*100 […]"}, "[4]": {"tested_on": "HIV (X4 and R5-tropic virus)", "test": "Inhibition of transcytosis through HEC-1A monolayer (transwell)", "format": "cell-based", "procedure": "To obtain a perfect monolayer of polarized epithelial cells, the HEC-1A were grown in complete medium on a permeable polycarbonate support of 0.4 μm pore (Costar, Cambridge, Mass.). Then, 2*10^5 cells by well were cultivated for 7 days, with media changes every 2-3 days. The dendrimer were added one hour prior to the infection. […] The viral concentration was quantified by ELISA.\nTo reproduce in the best possible way the role that the anionic dendrimer develop on the surface of the endometrium and to study the passage of virions through the mucosal stratified vaginal epithelium, we used transwell devices that recreate the phenomenon of transcytosis (transport of macromolecules from the extracellular space to another through the cytoplasm of a cell via an endocytic vesicle) due to the possibility of forming a perfect monolayer of adherent cells on the inside and collect information from the supernatants of the apical and basolateral side of the monolayer. […]"}, "PBMC [5]": {"tested_on": "PBMC", "test": "LDH assay in PBMC", "format": "cell-based, human", "excerpt": "This technique (CytoTox 96® Non-Radioactive Cytotoxicity Assay) was used to test the damage in the cell membrane surface due to the presence of anionic peripheral groups of dendrimers. The lactate dehydrogenase (LDH) is an enzyme that is released into the […] due to cell lysis. The LDH assay, therefore, is a measure of membrane integrity, which is based on the […] and reduction of tetrazolium salts to formazan crystals by […].\n1*10^5 cells/well were dispensed in 96-well plate round bottom in a volume of 100 μL of complete medium and the dendrimer was added in a volume of 100 μL, to obtain a final volume of 200 μL in the well. Controls: 1. 200 μL of complete medium without cells (background control), 2. 100 μL of cells+100 μL of complete medium, 3. 100 μL of cells+100 μL of Triton X-100 0.2% 4. 100 μL of cells+100 μL with the dendrimer to the desired concentration. Incubated in culture conditions during the first 24 h. Plate was centrifuged at 1500 rpm 10 minutes and removed 100 μL of supernatant, being careful not to take the cells. 100 μL of reaction mixture prepared at the time on the 100 μL was added of supernatant and incubated at room temperature for 30 minutes in darkness. Finally, measured at 490 nm and 690 nm reference. The cytotoxicity was obtained from the following formula: Cytotoxicity (%)=(4−2)/(3−2)*100"}, "PBMC [6]": {"tested_on": "PBMC", "test": "MTT assay in PBMC", "format": "cell-based, human", "conditions": "10 μM", "procedure": "as §1"}, "[7]": {"tested_on": "HIV-1 NL4.3 (X4 tropic) and HIV-1 BaL (R5 tropic)", "test": "Action mechanism: virus treated with dendrimer before exposure to PBMC", "format": "cell-based", "conditions": "10 μM, 4 days of culture", "procedure": "It was used for this experiment a 96 well plate of flat bottom with Poli-L-lysine (PLL, Sigma® covering the bottom of the well. For this purpose, 50 uL of PLL were incubated at 37° C. for one hour. After washing the wells three times with PBS, 4 ng of HIV were incubated overnight at 4° C., to ensure that the virus particles were adhered to the bottom of the well. Each well was washed three times with PBS to remove HIV not adhered to the plate and then each well was treated with different dendrimer concentrations for 1 h. Afterward, it was necessary to washed the product with PBS and PBMC previously stimulated were added. The supernatant of this cell culture was recovered after 4 days and p24 antigen was quantified by ELISA to assess the amount of HIV produced by the PBMC in different treatments. As positive control of lysis of the viral particles Triton x-100 (1%) was used.\nAfter verifying the effectiveness of the dendrimer to block adherence and internalization of virus particles, we proceeded to try to understand the mechanism of action. To this end, we designed an experiment that consisted of exposing the viral particles to the presence of dendrimer, to then use this combination in stimulated PBMC cultures (prepared for the viral infection). […]"}, "HIV-1 NL4.3": {"tested_on": "HIV-1 NL4.3", "test": "PBMC pre-treatment / post-treatment infection inhibition", "format": "cell-based", "procedure": "We used 2*10^5 stimulated PBMC cells dispensed in 200 μL of complete medium in round bottom wells of p96 plate. […] After this time, the wells were washed twice with PBS and were incubated in culture conditions. The viral concentration after 3 days was quantified by ELISA of p24."}, "[8]": {"tested_on": "TNF-alpha transcriptional activity (pTNF-luc)", "test": "Transfection of Jurkat cells with pTNF-luc plasmid", "format": "cell-based", "conditions": "5 and 10 micromolar, 16 hours, versus control cells without stimulating", "procedure": "Inflammation experiments: the experiments were conducted with transient transfection using plasmid indicators pTNF-luc and pNF-κB-luc containing 3 copies in tandem of site NF-κB of the promoter. The Jurkat cell line was nucleofected with the AMAXA nucleofector following the commercial house protocol “cell line nucleofector kit V” and the specific programme used in the X-005. Transfected cells were stimulated for 16 hours with the different stimuli that appear in the graphs (TNF-alpha, antibody monoclonal anti-TNF-alpha and different concentrations (5 and 10 micromolar) of the anionic sulfonate dendrimer). After different treatments, the transfected cells were collected by centrifugation and lysed with commercial tampon lysis “Dual-luciferase Assay System Kit” (Promega), according to the manufacturer's recommendations. The amount of protein in 5 μl of lysed cell was measured by the method of BSA-BCA (Pierce, Rockford, USA). Once quantified, the values of all the samples were normalized to 20 micrograms to measure the luciferase activity for about 10 seconds in a luminometer 1450 Microbeta Luminiscence Counter (Walax, Trilux). Luciferasa activity of firefly values are expressed as induction with respect to cells control. […]"}, "NF-kB (pNF-kB-luc)": {"tested_on": "NF-kB (pNF-kB-luc)", "test": "Transfection of Jurkat cells with pNF-kB-luc plasmid", "format": "cell-based", "procedure": "Inflammation experiments: the experiments were conducted with transient transfection using plasmid indicators pTNF-luc and pNF-κB-luc containing 3 copies in tandem of site NF-κB of the promoter. The Jurkat cell line was nucleofected with the AMAXA nucleofector following the commercial house protocol “cell line nucleofector kit V” and the specific programme used in the X-005. Transfected cells were stimulated for 16 hours with the different stimuli that appear in the graphs (TNF-alpha, antibody monoclonal anti-TNF-alpha and different concentrations (5 and 10 micromolar) of the anionic sulfonate dendrimer). […] The amount of protein in 5 μl of lysed cell was measured by the method of BSA-BCA (Pierce, Rockford, USA). Once quantified, the values of all the samples were normalized to 20 micrograms to measure the luciferase activity for about 10 seconds in a luminometer 1450 Microbeta Luminiscence Counter (Walax, Trilux). Luciferasa activity of firefly values are expressed as induction with respect to cells control.\nJurkat cells were transfected with the pNF-kB-luc plasmid, they were cultivated in the presence of sulfonate (10 micromolar) for 16 hours and the luciferasa activity was measured. […] The results presented are expressed as standardized induction index with the values of cell controls without treatment control and it is a representative of three independent experiments."}, "PBMC [9]": {"tested_on": "PBMC", "test": "Lymphoproliferative assay (BrdU incorporation)", "parameters": "Mitogenic effect of dendrimer alone (BrdU incorporation): dose or concentration left out as unconfirmed"}}, "note": "Entries after “also recorded” stand apart in the source; their conditions may differ.", "data": [{"compound": "ck-G1-[Si(CH2)4(N3C2H)CH2N(CH2PO(OMe)2)2]8 [G2CKP32]", "values": [{"measurement": "Cell viability (MTT toxicity curve)", "setting": "[1]", "value": "good cell viability"}]}, {"compound": "mannan [reference compound]", "values": [{"measurement": "Decrease of p24 antigen in immature dendritic cells", "setting": "[2]", "value": "significant"}]}, {"compound": "Cc1ccc(C(=O)Nc2ccc(S(=O)(=O)O)c3cc(S(=O)(=O)O)cc(S(=O)(=O)O)c23)cc1NC(=O)c1cccc(NC(=O)Nc2cccc(C(=O)Nc3cc(C(=O)Nc4ccc(S(=O)(=O)O)c5cc(S(=O)(=O)O)cc(S(=O)(=O)O)c45)ccc3C)c2)c1", "note": "[Suramin, reference compound]", "values": [{"measurement": "LDH release", "setting": "[3]; after an hour of contact", "value": "did not show toxicity"}, {"measurement": "Reduction of passage of viral particles through the monolayer", "setting": "[4]; 70 ng Bal virus, 1 h pretreatment, basolateral supernatant after 48 h, FIG. 20", "value": "lacks the inhibitory effect"}, {"measurement": "Inhibitory effect on passage of viral particles through the monolayer", "setting": "[4]; R5-tropic virus, positive control", "value": "no inhibitory effect"}, {"measurement": "Decrease of p24 antigen in immature dendritic cells", "setting": "[2]", "value": "significant"}]}, {"compound": "dextran", "values": [{"measurement": "LDH in the supernatant with regard to the control", "setting": "[3]; 24 hours of treatment", "value": "~10", "unit": "%"}]}, {"compound": "G1-[Si(CH2)3N(CH2CH2SO3Na)2]8 [G2SF16]", "values": [{"measurement": "Damage to the cell membrane (LDH)", "setting": "PBMC [5]", "value": "low damage"}, {"measurement": "Concentration from which toxicity was presented (LDH)", "setting": "PBMC [5]; 24 hours", "value": "≥ 10", "unit": "µM"}, {"measurement": "Mitochondrial activity (MTT)", "setting": "PBMC [6]", "value": "optimal mitochondrial activity"}, {"measurement": "HIV (p24) in supernatant of PBMC after virus treated with dendrimer", "setting": "[7]", "value": "low prevalence of HIV"}, {"measurement": "Reduction of passage of viral particles through the monolayer", "setting": "[4]; 5 μM, both X4 and R5 virus, basolateral supernatant at 24 and 48 hours", "value": 40, "unit": "%"}, {"measurement": "Inhibition of infection, post-treatment", "setting": "HIV-1 NL4.3; PBMC infected first, then dendrimer", "value": 60, "unit": "%"}, {"measurement": "Inhibition of infection, pre-treatment", "setting": "HIV-1 NL4.3; PBMC treated with dendrimer prior to infection by HIV-1 NL4.3", "value": 80, "unit": "%"}, {"measurement": "Decrease of p24 antigen in immature dendritic cells", "setting": "[2]", "value": "significant"}, {"measurement": "p24 in the supernatant of macrophages", "setting": "[2]", "value": "clear decrease of p24"}, {"measurement": "Promoter activity of the pTNF-luc plasmid", "setting": "[8]", "value": "two to three times lower"}, {"measurement": "Activity of the pNF-kB-luc plasmid", "setting": "NF-kB (pNF-kB-luc); 10 micromolar, 16 hours", "value": "decrease in the activity of the pNF-kB-luc plasmid; also recorded: decreases the transcriptional activity of NF-kappa"}, {"measurement": "Induction of NF-kB-luc by TNF-alpha", "setting": "NF-kB (pNF-kB-luc); sulfonate + TNF-alpha", "value": "reversal of the induction of NF-kB-luc"}, {"measurement": "Effect on mitogenic effect of PHA, treatment at the same time as PHA", "setting": "PBMC [9]; PBMC, 4 days", "value": "slightly decreases the mitogenic effect"}, {"measurement": "Mitogenic effect of dendrimer alone (BrdU incorporation)", "setting": "PBMC [9]; PBMC, 4 days", "value": "no mitogenic effect"}, {"measurement": "BrdU incorporation in PBMC previously stimulated with PHA", "setting": "PBMC [9]; PHA for 3 days, then 4 days of treatment, FIG. 4B", "value": "decrease in BrdU incorporation; also recorded: inhibits the mitogenic effect of PHA"}]}, {"compound": "ck-G1-[Si(CH2)4(N3C2H)CH2N(CH2CH2COONa)2]8 [G2CKCOO16]", "values": [{"measurement": "Cell viability (MTT toxicity curve)", "setting": "[1]", "value": "good cell viability"}]}]}
